Reference: patent US20050032863A1, “Method of treating or preventing central nervous system disorders with compounds having selectivity for the alpha 3 subunit of the benzodiazepine receptor” (priority 2003, published 2005)

What was measured:
[1] = test system: 5-HT release in the brain; details: literature reports; cited from earlier work
[2] = biological target: T1, recombinant rat α4β2γ2 GABAA receptors (Rattus norvegicus, UniProt P28471); experiment: Whole-cell patch-clamp, modulation of GABA (EC20)-induced currents in transfected HEK 293 cells, α4β2γ2; format: cell-based; details: α4-containing receptors; diazepam up to 1 μM, ELB139 at all concentrations tested
T1 construct: expressed in transfected cells; host or cells: HEK 293
T1 sequence (P28471 36-552): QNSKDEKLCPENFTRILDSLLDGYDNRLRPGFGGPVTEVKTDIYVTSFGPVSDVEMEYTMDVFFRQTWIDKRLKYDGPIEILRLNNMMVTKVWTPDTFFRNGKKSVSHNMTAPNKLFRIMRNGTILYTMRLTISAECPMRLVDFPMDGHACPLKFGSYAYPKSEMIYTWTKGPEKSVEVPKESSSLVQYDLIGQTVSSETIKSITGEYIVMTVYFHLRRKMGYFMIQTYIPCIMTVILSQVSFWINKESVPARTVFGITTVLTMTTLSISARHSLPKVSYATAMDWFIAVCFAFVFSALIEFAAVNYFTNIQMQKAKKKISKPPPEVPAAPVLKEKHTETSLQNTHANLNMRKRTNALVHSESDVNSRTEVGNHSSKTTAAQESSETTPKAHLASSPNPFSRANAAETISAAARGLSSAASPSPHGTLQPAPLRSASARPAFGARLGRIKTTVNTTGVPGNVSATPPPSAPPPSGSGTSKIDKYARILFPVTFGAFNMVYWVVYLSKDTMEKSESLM
Protocol: (§1) For electrophysiological recording HEK-293 cells were passaged and replated on 12-mm glass coverslips located in 9.6-cm plastic dishes filled with 10 ml of Minimum Essential Medium (MEM, Gibco) supplemented with 158 mg/l sodium bicarbonate, 2 mM glutamine (Gibco), 100 U/ml penicillin-streptomycin (Gibco), and 10% foetal calf serum (Gibco). Cultures were maintained at 37° C. in a humidified […]/5% CO2 atmosphere for 2-3 days.
(§2) Transfection with recombinant rat GABAA receptors was carried out as described in detail (Korpi and Lüddens, 1993, Lüddens and Korpi, 1995b). Briefly, HEK 293 cells were transfected in triple combinations using the phosphate precipitation method with rat GABAA receptor cDNAs in eukaryotic expression vectors (Pritchett, 1990) for the α, β and γ subunits. For optimal receptor expression, final concentrations (μg vector DNA per 9.6 cm tissue culture plate) were: α1, 2; α2 4.8; α3, 1.2; α4, 10; α5, 0.8; β2, 0.4; and γ2S, 0.3. The γ2S variant is abbreviated γ2 in the remainder of the text. To identify transfected cells all subunit combinations were co-transfected with 1 μg per plate of pNI-EGFP.
Two days after transfection single coverslips containing HEK 293 cells were placed in a recording chamber mounted on the movable stage of a fluorescence microscope (Olympus IX70) and perfused with a defined saline solution containing (in mM): 130 NaCl, 5.4 KCl, 2 CaCl2, 2 MgSO4, 10 glucose, 5 sucrose, and 10 HEPES (free acid), pH adjusted to 7.35 with about 35 mM NaOH. Transfected cells were identified by their green fluorescence due to the expression of the pNI-EGFP vector and ligand-mediated membrane currents of these cells were studied in the whole-cell configuration of the patch-clamp technique (Hamil et al., 1981). […]
Seal resistances >1 GΩ were routinely obtained by applying gentle suction to the pipettes. Membrane rupture was monitored electrically as an increase in capacity. […]
In all cells recorded the presence of the γ2 subunit in the heteropentamere was monitored by the application of 1 μM zolpidem plus the EC20 of GABA before testing the experimental drugs. […]

[3] = biological target: T2, recombinant rat α2β2γ2 GABAA receptors (Rattus norvegicus, UniProt P23576); experiment: Whole-cell patch-clamp, modulation of GABA (EC20)-induced currents in transfected HEK 293 cells, α2β2γ2; format: cell-based
T2 construct: expressed in transfected cells; host or cells: HEK 293
T2 sequence (P23576 29-451): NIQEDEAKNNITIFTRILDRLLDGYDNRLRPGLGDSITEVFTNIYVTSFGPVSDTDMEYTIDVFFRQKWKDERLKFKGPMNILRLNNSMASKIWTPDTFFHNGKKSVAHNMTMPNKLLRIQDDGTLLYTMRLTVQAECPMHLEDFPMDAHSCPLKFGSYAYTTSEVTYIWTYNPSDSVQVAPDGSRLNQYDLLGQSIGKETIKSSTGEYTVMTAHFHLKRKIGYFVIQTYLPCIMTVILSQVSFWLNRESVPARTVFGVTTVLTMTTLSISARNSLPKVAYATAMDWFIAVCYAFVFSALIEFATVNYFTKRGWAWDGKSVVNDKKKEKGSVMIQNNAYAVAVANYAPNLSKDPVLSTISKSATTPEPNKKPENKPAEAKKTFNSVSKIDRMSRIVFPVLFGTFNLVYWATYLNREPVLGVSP
Protocol: as §1, §2
(§3) Two days after transfection single coverslips containing HEK 293 cells were placed in a recording chamber mounted on the movable stage of a fluorescence microscope (Olympus IX70) and perfused with a defined saline solution containing (in mM): 130 NaCl, 5.4 KCl, 2 CaCl2, 2 MgSO4, 10 glucose, 5 sucrose, and 10 HEPES (free acid), pH adjusted to 7.35 with about 35 mM NaOH. Transfected cells were identified by their green fluorescence due to the expression of the pNI-EGFP vector and ligand-mediated membrane currents of these cells were studied in the whole-cell configuration of the patch-clamp technique (Hamil et al., 1981). Patch-clamp pipettes were pulled from hard borosilicate capillary glass (0.5 mm ID, 1.5 mm OD, Vitrex, Science Products GmbH, Hofheim, Germany) using a horizontal puller (Sutter Instruments, CA, Model P-97) in a multi-stage process.
(§4) Seal resistances >1 GΩ were routinely obtained by applying gentle suction to the pipettes. Membrane rupture was monitored electrically as an increase in capacity. Pipette capacitance, membrane capacitance, and series resistance were electronically compensated to achieve minimal capacitative transients. A series resistance compensation of >60% was regularly used.
(§5) In all cells recorded the presence of the γ2 subunit in the heteropentamere was monitored by the application of 1 μM zolpidem plus the EC20 of GABA before testing the experimental drugs.
(§6) Responses of the cells were recorded by a patch-clamp amplifier (EPC-8, HEKA-Electronic, Lambrecht, Germany) in conjunction with a standard personal computer and the pClamp 8.1 software package (Axon Instruments, Foster City, Calif.). The standard holding-potential for the cells was −40 mV. Whole cell currents were low-pass filtered by an eight-pole Bessel filter at 5 or 3 kHz before being digitised by a Digidata 1322A interface (Axon Instruments, Foster City, Calif.) and recorded by the computer at a sampling rate of at least […].
(§7) Efficacy, potency, and GABAA receptor a subunit specificity of the new compound ELB139 was tested with the whole cell configuration of the patch-clamp technique by applying increasing drug concentration together with GABA of the approximate EC20 on green fluorescing cells. BZ binding site specificity of the new compound was tested on the same cells in an identical experimental setting with additionally applying 10 μM Ro15-1788.

[4] = biological target: T3, recombinant rat α3β2γ2 GABAA receptors (Rattus norvegicus, UniProt P20236); experiment: Whole-cell patch-clamp, modulation of GABA (EC20)-induced currents in transfected HEK 293 cells, α3β2γ2; format: cell-based
T3 construct: expressed in transfected cells; host or cells: HEK 293
T3 sequence (P20236 29-493): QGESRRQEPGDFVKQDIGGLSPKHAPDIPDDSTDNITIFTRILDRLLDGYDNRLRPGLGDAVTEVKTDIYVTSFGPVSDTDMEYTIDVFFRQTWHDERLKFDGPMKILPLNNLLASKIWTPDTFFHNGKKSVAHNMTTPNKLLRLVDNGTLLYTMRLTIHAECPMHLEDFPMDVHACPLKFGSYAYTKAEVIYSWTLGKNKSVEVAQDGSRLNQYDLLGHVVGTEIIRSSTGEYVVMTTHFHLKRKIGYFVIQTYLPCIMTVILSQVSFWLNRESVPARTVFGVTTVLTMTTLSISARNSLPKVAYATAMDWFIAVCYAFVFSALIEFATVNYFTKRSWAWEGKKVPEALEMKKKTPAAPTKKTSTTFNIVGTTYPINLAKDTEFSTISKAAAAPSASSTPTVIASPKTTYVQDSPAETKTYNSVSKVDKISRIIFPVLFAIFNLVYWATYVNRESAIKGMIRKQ
Protocol: as §1, §2, §3, §4, §5, §6, §7

[5] = biological target: T4, recombinant rat α1β2γ2 GABAA receptors (Rattus norvegicus, UniProt P62813); experiment: Whole-cell patch-clamp, modulation of GABA (EC20)-induced currents in transfected HEK 293 cells, α1β2γ2; format: cell-based
T4 construct: expressed in transfected cells; host or cells: HEK 293
T4 sequence (P62813 28-455): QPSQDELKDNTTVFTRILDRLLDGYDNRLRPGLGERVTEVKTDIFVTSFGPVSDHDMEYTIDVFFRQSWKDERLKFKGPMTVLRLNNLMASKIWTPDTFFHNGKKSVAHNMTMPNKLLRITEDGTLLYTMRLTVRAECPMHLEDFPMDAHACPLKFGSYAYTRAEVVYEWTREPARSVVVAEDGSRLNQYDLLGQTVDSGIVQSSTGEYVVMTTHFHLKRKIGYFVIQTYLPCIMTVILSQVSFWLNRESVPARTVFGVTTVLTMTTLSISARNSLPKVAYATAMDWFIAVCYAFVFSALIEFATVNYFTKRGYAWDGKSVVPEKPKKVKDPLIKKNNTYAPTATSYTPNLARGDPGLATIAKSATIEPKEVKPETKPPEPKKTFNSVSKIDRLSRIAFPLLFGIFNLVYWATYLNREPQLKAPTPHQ
Protocol: as §1, §2, §3, §4, §5, §6, §7

[6] = biological target: T5, recombinant rat α5β2γ2 GABAA receptors (Rattus norvegicus, UniProt P19969); experiment: Whole-cell patch-clamp, modulation of GABA (EC20)-induced currents in transfected HEK 293 cells, α5β2γ2; format: cell-based
T5 construct: expressed in transfected cells; host or cells: HEK 293
T5 sequence (P19969 32-464 limits assumed): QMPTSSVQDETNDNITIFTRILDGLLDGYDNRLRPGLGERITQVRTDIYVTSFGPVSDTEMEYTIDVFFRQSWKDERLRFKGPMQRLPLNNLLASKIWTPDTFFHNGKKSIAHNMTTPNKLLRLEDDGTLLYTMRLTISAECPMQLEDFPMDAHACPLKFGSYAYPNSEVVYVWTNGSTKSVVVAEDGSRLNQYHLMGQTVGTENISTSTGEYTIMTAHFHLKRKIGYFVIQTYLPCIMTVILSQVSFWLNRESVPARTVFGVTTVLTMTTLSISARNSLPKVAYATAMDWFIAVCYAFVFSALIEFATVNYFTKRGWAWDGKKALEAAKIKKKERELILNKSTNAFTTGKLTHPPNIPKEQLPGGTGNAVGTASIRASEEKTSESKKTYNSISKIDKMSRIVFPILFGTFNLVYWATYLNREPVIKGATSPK
Protocol: as §1, §2, §3, §4, §5, §6, §7

[7] = test system: female Wistar rats, MK-801-induced stereotypies, hyperactivity and ataxia; experiment: MK-801-induced behaviour, rat model of psychosis (Example 1); format: in vivo; details: 0.5 mg/kg i.p. 1 h prior to test; MK-801 0.2 mg/kg i.p.; p<0.001
Protocol: (§8) The behaviour induced by the NMDA antagonist MK-801 is generally accepted as a rat model of psychosis. MK-801 induces stereotypies, hyperactivity and ataxia in rats after intraperitoneal administration.
Locomotor activity of the rats is recorded by the MotiTest Apparatus (TSE, Bad Homburg, Germany). The test area consisted of a squared arena ([…] with protective plexiglass walls (20 cm of height) where rats could freely move. Horizontal movements were recorded by 32 infrared photocells arranged along the bottom of each wall of the arena. Vertical movements (rearings) were recorded by a horizontal row of 32 infrared photocells 12 cm above the floor. The following parameters are measured by the computer program “ActiMot” (TSE, Bad Homburg, Germany): • active time [s] and total distance travelled [m]
(§9) Stereotypies, divided into stereotyped sniffing and other stereotypies, and ataxia are scored by the experimenter every five minutes for one hour (12 intervals) according to the method described by Andiné et al. (1999). The scores of the 12 intervals are added for each parameter.
The day of experiment the female rats are placed in the laboratory and receive the test compound, the reference substance or vehicle at the appropriate time prior to test. MK-801 0.2 mg/kg is intraperitoneally administered 10 minutes prior to test.
(§10) At the beginning of the test the rats are placed in the centre of the squared arena of the MotiTest apparatus. Behaviour of the rats is recorded for one hour. After each run animals are removed and the boxes thoroughly cleaned and dried.

[8] = test system: female Wistar rats, MK-801-induced stereotypies, hyperactivity and ataxia; experiment: MK-801-induced psychosis-related behaviour and reversibility by flumazenil (Example 7); format: in vivo, rat
Protocol: Apart from the haloperidol rats which received haloperidol 30 minutes and MK-801 10 minutes prior to the test, the other test groups received haloperidol, ELB139 or vehicle 60 minutes prior to test, saline or flumazenil 20 minutes prior to test and MK-801 10 minutes prior to test.
as §8
Locomotor activity of the rats is recorded by the MotiTest Apparatus (TSE, Bad Homburg, Germany). The test area consisted of a squared arena (45×45 cm) with protective plexiglass walls (20 cm of height) where rats could freely move. Horizontal movements were recorded by 32 infrared photocells arranged along the bottom of each wall of the arena. Vertical movements (rearings) were recorded by a horizontal row of 32 infrared photocells 12 cm above the floor. The following parameters were measured by the computer program “ActiMot” (TSE, Bad Homburg, Germany): • 1. active time [s] • 2. total distance travelled [m]
as §9
The day of experiment the female rats are placed in the laboratory and receive the test compound, the reference substance or vehicle at the appropriate time prior to test. […]
as §10

[9] = biological target: alpha 5 containing receptors (UniProt P18508+P31644); details: cited from earlier work
alpha 2 receptors = alpha 2 receptors (UniProt P18508+P47869); details: cited from earlier work
alpha 2 receptors, sequence (P47869 29-451): as the sequence (P23576 29-451) above, with S88L, P174A, G330A counted along it
alpha 2 receptors, sequence (P63138 25-474 partner limits assumed): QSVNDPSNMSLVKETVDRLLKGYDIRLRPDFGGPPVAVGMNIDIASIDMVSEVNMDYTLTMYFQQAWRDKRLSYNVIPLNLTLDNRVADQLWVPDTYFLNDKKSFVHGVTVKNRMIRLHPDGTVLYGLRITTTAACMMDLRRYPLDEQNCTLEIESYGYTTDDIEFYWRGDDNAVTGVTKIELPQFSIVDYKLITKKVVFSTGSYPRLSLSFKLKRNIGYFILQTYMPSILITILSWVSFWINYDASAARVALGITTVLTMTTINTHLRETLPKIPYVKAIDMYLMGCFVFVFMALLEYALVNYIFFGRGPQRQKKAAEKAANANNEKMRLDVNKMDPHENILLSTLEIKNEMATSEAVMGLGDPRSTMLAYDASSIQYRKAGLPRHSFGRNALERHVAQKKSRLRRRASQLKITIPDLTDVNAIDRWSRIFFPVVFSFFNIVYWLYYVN
alpha 2 receptors, sequence (P18508 39-466): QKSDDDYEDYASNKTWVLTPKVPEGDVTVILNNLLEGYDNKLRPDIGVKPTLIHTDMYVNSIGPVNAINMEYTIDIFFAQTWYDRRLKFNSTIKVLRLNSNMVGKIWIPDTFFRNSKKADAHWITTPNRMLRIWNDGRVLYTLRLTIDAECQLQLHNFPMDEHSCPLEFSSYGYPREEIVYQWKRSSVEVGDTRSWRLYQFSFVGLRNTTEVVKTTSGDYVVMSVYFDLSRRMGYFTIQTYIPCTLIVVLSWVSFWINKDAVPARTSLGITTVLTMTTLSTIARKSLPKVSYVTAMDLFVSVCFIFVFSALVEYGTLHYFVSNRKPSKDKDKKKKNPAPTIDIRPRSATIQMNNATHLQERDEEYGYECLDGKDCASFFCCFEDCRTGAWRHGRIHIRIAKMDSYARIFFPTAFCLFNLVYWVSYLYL

alpha 3 receptors = alpha 3 receptors (UniProt P18508+P34903); details: cited from earlier work
alpha 3 receptors, sequence (P34903 29-492): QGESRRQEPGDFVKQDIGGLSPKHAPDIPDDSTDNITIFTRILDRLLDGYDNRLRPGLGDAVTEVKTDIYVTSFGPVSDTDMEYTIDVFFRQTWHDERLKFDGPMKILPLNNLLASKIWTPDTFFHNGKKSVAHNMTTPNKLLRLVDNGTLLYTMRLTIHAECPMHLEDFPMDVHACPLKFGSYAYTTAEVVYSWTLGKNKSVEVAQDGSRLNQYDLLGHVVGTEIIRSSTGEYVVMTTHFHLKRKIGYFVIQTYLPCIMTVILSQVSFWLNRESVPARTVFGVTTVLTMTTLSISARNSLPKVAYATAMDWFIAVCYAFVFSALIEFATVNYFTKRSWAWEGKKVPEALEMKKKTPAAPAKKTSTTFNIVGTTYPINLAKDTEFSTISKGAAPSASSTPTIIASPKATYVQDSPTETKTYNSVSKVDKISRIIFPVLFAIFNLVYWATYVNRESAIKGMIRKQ
alpha 3 receptors, sequence (P63138 25-474 partner limits assumed): as the sequence (P63138 25-474 partner limits assumed) above
alpha 3 receptors, sequence (P18508 39-466): as the sequence (P18508 39-466) above

[10] = biological target: alpha 1 containing receptors (UniProt P14867+P18508); details: cited from earlier work
alpha 1 containing receptors, sequence (P14867 28-456): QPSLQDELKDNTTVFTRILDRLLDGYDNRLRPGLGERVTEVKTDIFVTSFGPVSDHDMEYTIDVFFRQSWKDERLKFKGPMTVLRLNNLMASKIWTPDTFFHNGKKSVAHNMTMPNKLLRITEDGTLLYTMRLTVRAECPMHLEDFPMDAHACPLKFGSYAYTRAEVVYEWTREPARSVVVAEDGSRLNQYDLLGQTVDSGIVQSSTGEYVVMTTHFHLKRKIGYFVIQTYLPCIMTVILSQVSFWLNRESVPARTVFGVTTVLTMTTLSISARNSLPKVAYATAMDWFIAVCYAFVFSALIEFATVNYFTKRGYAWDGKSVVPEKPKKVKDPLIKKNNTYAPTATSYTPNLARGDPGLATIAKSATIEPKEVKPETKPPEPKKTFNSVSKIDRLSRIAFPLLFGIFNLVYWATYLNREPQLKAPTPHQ
alpha 1 containing receptors, sequence (P63138 25-474 partner limits assumed): as the sequence (P63138 25-474 partner limits assumed) above
alpha 1 containing receptors, sequence (P18508 39-466): as the sequence (P18508 39-466) above

male Wistar rats = experiment: Rat forced swim test; format: in vivo; details: 10 and 30 mg/kg p.o., 23, 5 and 1 h prior to testing
Protocol: All animals were treated with verum or vehicle three times: shortly after the habituation session (23 h), 5 and 1 h prior to testing. All drugs were administered orally with an application volume of 1 ml/kg.
The animals were tested in a glass tank (23×30 cm, height 40 cm) filled to a depth of 28 cm with water at 22° C. (the animals could not touch the bottom). The glass tank was illuminated indirectly and was surrounded by dark brown shading walls (distance from the tank 20 cm) to prevent the view on the experimenter. The experiments were performed between 14:00 and 17:00 hours and the method was in general performed as described (Porsolt et al., 1979; Lucki, 1997).
On the first experimental day, rats were gently placed in the water for a 15 min period of habituation. On removal from the water, they were placed in a standard plexiglass box, the floor covered with paper towels, under an infrared heater for 30 min to dry. The next day, they were once more placed gently in the glass tank and observed for 5 min. The behaviour of the animals was video-taped.
Following the experiment the video tapes were analysed manually and the duration of the following behaviours was recorded: Immobility: floating and making only those movements necessary to keep the nose above the water. […] Climbing: when rats strongly move their forepaws in and out of the water, usually against the walls.

[11] = haloperidol 0.5 mg/kg i.p. + flumazenil 5 mg/kg i.p.
[12] = haloperidol 0.5 mg/kg i.p., MK-801 0.1 mg/kg i.p.

SMILES: NC(=O)N1c2ccccc2C=Cc2ccccc21 [Carbamazepine]
- effect on 5-HT release / extracellular 5-HT in the brain [1]: increase

SMILES: CN1C(=O)CN=C(c2ccccc2)c2cc(Cl)ccc21 [Diazepam, reference compound]
- modulation of GABA-induced currents (in words) [2]: no significant modulation
- concentration at which positive current modulations were first measurable ([3]; α2 containing receptors): below 0.1 μM
- maximal agonism, potentiation of GABA-induced current ([3]; α2β2γ2, at 1 μM diazepam): 1.8 fold
- Potentiation* (Diazepam) ([3]; α2β2γ2, with GABA EC20, graphically determined): 1.8 ± 0.6
- concentrations at which positive current modulation was observable ([4]; α3-containing receptors): below 10 nM
- Potentiation* (Diazepam) ([4]; α3β2γ2, with GABA EC20, graphically determined): 1.8 ± 0.11
- maximal positive modulation of GABA-induced current ([5]; α1-containing receptors, maximum at 30 μM (ELB139), at 1 μM (diazepam)): 2.2±0.9 fold
- Potentiation* (Diazepam) ([5]; α1β2γ2, with GABA EC20, graphically determined): 2.2 ± 0.9
- concentration at which the current was potentiated [6]: 10 nM
- maximal positive modulation of GABA-induced current ([6]; maximum at 30 μM (ELB139), at 1 μM (diazepam)): 2±0.05 fold
- Potentiation* (Diazepam) ([6]; with GABA EC20, graphically determined): 2 ± 0.05

SMILES: O=C(CCCN1CCC(O)(c2ccc(Cl)cc2)CC1)c1ccc(F)cc1 [Haloperidol, 4-(4-[4-chlorophenyl]-4-hydroxy-1-piperidinyl)-1-(4-fluorophenyl)-1-nutanone, reference compound]
- all symptoms induced by MK-801 [7]: significantly reduced all symptoms
- MK-801-induced ataxia, combination with flumazenil [8, 11]: significantly reversed
- effects on activity, distance, sniffing and other stereotypies when flumazenil is added [8, 11]: not affected
- MK-801-induced ataxia ([8]; haloperidol 0.5 mg/kg i.p. alone, MK-801 0.1 mg/kg i.p.): only marginally reduced
- MK-801-increased activity [8, 12]: significantly reversed
- MK-801-increased distance travelled [8, 12]: significantly reversed
- MK-801-induced other stereotypies [8, 12]: slightly reduced
- MK-801-induced sniffing (stereotypies) [8, 12]: significantly reversed

SMILES: Cn1c2ccc(F)cc2c2c(C(=O)N3CCCC3)cn(-c3ccccc3)c(=O)c21 [SL651498]
- partial agonistic activity [9]: 40-50%
- partial agonistic activity (alpha 2 receptors): 100%
- activity (alpha 3 receptors): 70%
- partial agonistic activity [10]: 40-50%

SMILES: CCCC(CCC)C(=O)O [Valproate]
- effect on 5-HT release / extracellular 5-HT in the brain [1]: enhances

SMILES: CNCCC(Oc1ccc(C(F)(F)F)cc1)c1ccccc1 (stereo not drawn) [fluoxetine, N-methyl-γ-[4-(trifluoromethyl)phenoxy] benzenepropanamine, reference compound]
- climbing behaviour (male Wistar rats): not changed
- swimming time (male Wistar rats): increased
- time spent immobile (male Wistar rats): reduced

SMILES: NCC1(CC(=O)O)CCCCC1 [gabapentin]
- effect on 5-HT release / extracellular 5-HT in the brain [1]: decrease

SMILES: O=C1NC(=O)C(c2ccccc2)(c2ccccc2)N1 [phenytoin]
- effect on 5-HT release / extracellular 5-HT in the brain [1]: decrease
